Measurements reported in patent US8178688B2, “Benzamidine derivatives, process for the preparation thereof and pharmaceutical composition comprising the same” (Dong Wha Pharmaceutical Co., Ltd., priority 2004, dated 2012).

System: cells
Assay: Cytotoxicity test (MTT)
Format: cell-based
Settings: MC3T3-E1 cells, 10^−6M, 72 hrs, compared with the control group
Protocol: Cytotoxic effect of benzamidine derivatives was evaluated by the experiment described below.
The test substance was diluted in appropriate solvent at 10^−2M concentration. […] Cells to be used in cytotoxitic test were plated on a 96-well microplate in a dose of 1×10^4 cell/100 μL per well and cultured for 72 hrs. 25 μL of MTT [3-(4,5-dimethyl-2-thiazolyl)-2,5-diphenyl-2H-tetrazolium bromide] dissolved in PBS at 2 mg/mL were added before 4 hrs of the end of culture. After reaction, the plates were centrifuged, medium was decanted and 100 μL of DMSO was added to dissolve formazan. Lastly, the absorbance of developed plates was measured at 540 nm.

In order of rising “Survival rates of the cells” value:
1. Cc1sc(C(C)(C)C)nc1-c1ccc(OCCCCCOc2ccc(C(=N)NO)cc2)cc1 [Example 16, N-hydroxy-4-(5-[4-(2-t-butyl-5-methyl-1,3-thiazol-4-yl)phenoxy]pentoxy)-benzamidine]  39.6%
2. N=C(NO)c1ccc(OCCCCCOc2ccc(-c3csc(C4CCCCC4)n3)cc2)cc1 [Example 8, N-hydroxy-4-(5-[4-(2-cyclohexyl-1,3-thiazol-4-yl)phenoxy]pentoxy)-benzamidine]  76.9%

Same assay, conditions: ST2 cells, 10^−6M, 72 hrs, compared with the control group

In order of falling “Survival rates of the cells” value:
1. N=C(NO)c1ccc(OCCCCCOc2ccc(-c3csc(C4CCCCC4)n3)cc2)cc1 [Example 8, N-hydroxy-4-(5-[4-(2-cyclohexyl-1,3-thiazol-4-yl)phenoxy]pentoxy)-benzamidine]  46.2%
2. Cc1sc(C(C)(C)C)nc1-c1ccc(OCCCCCOc2ccc(C(=N)NO)cc2)cc1 [Example 16, N-hydroxy-4-(5-[4-(2-t-butyl-5-methyl-1,3-thiazol-4-yl)phenoxy]pentoxy)-benzamidine]  30.1%

System: osteoclast differentiation
Assay: Inhibitory effects on osteoclast differentiation (co-culture of bone marrow cells with osteoblast, TRAP staining)
Format: cell-based, mice
Settings: Mus musculus, Osteoclast, 168 h, read-out: % inhibitory activity on osteoclastogenesis
Method in brief: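 Percent inhibition versus control is based on microscope counts of TRAP-positive osteoclasts (3 or more nuclei) after 7 days of compound exposure. Cultures paired ddY mouse marrow cells with ICR calvarial osteoblasts, driven by dexamethasone 10^−7M plus vitamin D3 10^−8M, with medium and compound changed every 2–3 days.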

Work on `Cc1sc(C(C)(C)C)nc1-c1ccc(OCCCCCOc2ccc(C(=N)NO)cc2)cc1` [Example 16, N-hydroxy-4-(5-[4-(2-t-butyl-5-methyl-1,3-thiazol-4-yl)phenoxy]pentoxy)-benzamidine] yielded an inhibition at 1 µM of 64.3%.

Same assay, conditions: Mus musculus, Osteoclast, 168 h; 1 m; co-culture of bone marrow cells and osteoblast, 7 days, TRAP-positive osteoclasts versus controls; read-out: % inhibitory activity on osteoclastogenesis

In order of rising inhibition at 1 µM:
1. Cc1nc(-c2ccc(OCCCCCOc3ccc(C(=N)NO)cc3)cc2F)c(C(C)C)s1 [Example 191, N-hydroxy-4-(5-[3-fluoro-4-(5-isopropyl-2-methyl-1,3-thiazol-4-yl)-phenoxy]-pentoxy)-benzamidine]  8.8%
2. CC(C)Cc1sc(N2CCOCC2)nc1-c1ccc(OCCCCCOc2ccc(C(=N)NO)cc2)cc1 [Example 173, N-hydroxy-4-[5-[4-(5-isobutyl-2-morpholin-4-yl-1,3-thiazol-4-yl)phenoxy]pentoxy)-benzamidine]  9%
3. Cc1nc(-c2ccc(OCc3cccc(COc4ccc(C(=N)NO)cc4)c3)cc2)c(C(C)C)s1 [Example 209, N-hydroxy-4-(3-[4-(5-isopropyl-2-methyl-thiazol-4-yl)-phenoxymethyl]-benzyloxy)-benzamidine]  14.3%
4. Cc1nc(-c2ccc(OCCCCOc3ccc(C(=N)NO)cc3)cc2)c(C(C)C)s1 [Example 194, N-hydroxy-4-(4-[4-(5-isopropyl-2-methyl-1,3-thiazol-4-yl)phenoxy]butoxy)-benzamidine]  19.8%
5. Cc1nc(-c2ccc(OCCCCCOc3ccc(C(=N)NO)c(NC4CCCCC4)c3)cc2)c(C(C)C)s1 [Example 190, N-hydroxy-2-cyclohexylamino-4-(5-[4-(5-isopropyl-2-methyl-1,3-thiazol-4-yl)-phenoxy]-pentoxy)-benzamidine]  27.3%
6. Cc1nc(-c2ccc(OCC(C)NCCOc3ccc(C(=N)NO)cc3)cc2)c(C(C)C)s1 (centres unmarked) [Example 180, N-hydroxy-4-(2-[2-(4-(5-isopropyl-2-methyl-1,3-thiazol-4-yl)-phenoxy)-1-methyl-ethylamino]-ethoxy)-benzamidine]  32.6%
7. Cc1nc(-c2ccc(OCCOCCOc3ccc(C(=N)NO)cc3)cc2)c(C(C)C)s1 [Example 178, N-hydroxy-4-(2-[2-(4-(5-isopropyl-2-methyl-1,3-thiazol-4-yl)phenoxy)-ethoxy]-ethoxy)-benzamidine]  36.8%
8. CCc1sc(N(C)CCO)nc1-c1ccc(OCCCCOc2ccc(C(=N)NO)cc2)cc1 [Example 198, N-hydroxy-4-(4-[4-(5-ethyl-2-[(2-hydroxyethyl)-methyl-amino]-thiazol-4-yl)phenoxy]butoxy)-benzamidine]  36.9%
9. CCc1sc(N(C)Cc2cccnc2)nc1-c1ccc(OCCCCOc2ccc(C(=N)NO)cc2)cc1 [Example 200, N-hydroxy-4-(4-[4-(5-ethyl-2-[methyl-(pyridin-3-yl-methyl)amino]-thiazol-4-yl)phenoxy]butoxy)-benzamidine]  38.7%
10. Cc1nc(-c2ccc(OCCCCCNc3cccc(C(=N)NO)c3)cc2)c(C(C)C)s1 [Example 195, N-hydroxy-3-(5-[4-(5-isopropyl-2-methyl-thiazol-4-yl)-phenoxy]-pentylamino)-benzamidine]  42.3%
11. Cc1nc(-c2ccc(OCCCCCCOc3ccc(C(=N)NO)cc3)cc2)c(C(C)C)s1 [Example 211, N-hydroxy-4-(6-[4-(5-isopropyl-2-methyl-thiazol-4-yl)phenoxy]-hexyloxy)-benzamidine]  44%
12. Cc1nc(-c2ccc(OCCCOc3ccc(C(=N)NO)cc3)cc2)c(C(C)C)s1 [Example 193, N-hydroxy-4-(3-[4-(5-isopropyl-2-methyl-1,3-thiazol-4-yl)phenoxy]propoxy)-benzamidine]  54.1%
13. N=C(NO)c1ccc(OCCCCCOc2ccc(-c3csc(N4CCOCC4)n3)cc2)cc1 [Example 175, N-hydroxy-4-(5-[4-(2-morpholin-4-yl-1,3-thiazol-4-yl)phenoxy]pentoxy)-benzamidine]  61.9%
14. Cc1nc(-c2ccc(OCCCCCN(C)c3ccc(C(=N)NO)cc3)cc2)c(C(C)C)s1 [Example 183, N-hydroxy-4-(5-[4-(5-isopropyl-2-methyl-1,3-thiazol-4-yl)-phenoxy]-pentyl-methyl-amino)-benzamidine]  65.6%
15. N=C(NO)c1ccc(OCc2ccc(COc3ccc(-c4nc(C5CCCCC5)sc4CC4CCCC4)cc3)cc2)cc1 [Example 210, N-hydroxy-4-(4-[4-(5-cyclopentylmethyl-2-cyclohexyl-thiazol-4-yl)-phenoxymethyl]-benzyloxy)-benzamidine]  68.8%
16. Cc1nc(-c2ccc(OCCCCCOc3ccc(C(=N)NO)c(F)c3)cc2F)c(C(C)C)s1 [Example 192, N-hydroxy-2-fluoro-4-(5-[3-fluoro-4-(5-isopropyl-2-methyl-1,3-thiazol-4-yl)-phenoxy]-pentoxy)-benzamidine]  70.5%
17. Cc1nc(-c2ccc(OCCNCCOc3ccc(C(=N)NO)cc3)cc2)c(C(C)C)s1 [Example 186, N-hydroxy-4-(2-[2-(4-(5-isopropyl-2-methyl-1,3-thiazol-4-yl)phenoxy)-ethylamino]-ethoxy)-benzamidine]  71%
18. Cc1nc(-c2ccc(OCCCCC(=O)Nc3ccc(C(=N)NO)cc3)cc2)c(C(C)C)s1 [Example 182, N-hydroxy-4-(5-[4-(5-isopropyl-2-methyl-1,3-thiazol-4-yl)-phenoxy]-pentanoyl-amino)-benzamidine]  81.1%
19. CCc1sc(C2CCCCC2)nc1-c1ccc(OCCCCOc2ccc(C(=N)NO)cc2)cc1 [Example 196, N-hydroxy-4-(4-[4-(2-cyclohexyl-5-ethyl-thiazol-4-yl)-phenoxy]-butoxy)-benzamidine]  82%
20. CCc1sc(N(C)Cc2cccnc2)nc1-c1ccc(OCCCOc2ccc(C(=N)NO)cc2)cc1 [Example 199, N-hydroxy-4-(3-[4-(5-ethyl-2-[methyl-(pyridin-3-yl-methyl)amino]-thiazol-4-yl)phenoxy]propoxy)-benzamidine]  82.9%
21. CC(C)c1nc(-c2ccc(OCc3ccc(COc4ccc(C(=N)NO)cc4)cc3)cc2)c(CC2CCCC2)s1 [Example 201, N-hydroxy-4-(4-[4-(5-cyclopentylmethyl-2-isopropyl-thiazol-4-yl)-phenoxymethyl]-benzyloxy)-benzamidine]  85.6%
22. CCCCc1sc(C(C)C)nc1-c1ccc(OCc2ccc(COc3ccc(C(=N)NO)cc3)cc2)cc1 [Example 202, N-hydroxy-4-(4-[4-(5-butyl-2-isopropyl-thiazol-4-yl)-phenoxymethyl]-benzyloxy)-benzamidine]  85.6%
23. N=C(NO)c1ccc(OCCCCCOc2ccc(-c3nc(N4CCOCC4)sc3C3CCCC3)cc2)cc1 [Example 172, N-hydroxy-4-(5-[4-(5-cyclopentyl-2-morpholin-4-yl-1,3-thiazol-4-yl)phenoxy]pentoxy)-benzamidine]  87.8%
24. CCCOc1cc(OCCCCCOc2ccc(C(=N)NO)cc2)c(CC)cc1-c1csc(C)n1 [Example 213, N-hydroxy-4-(5-[2-ethyl-4-(2-methyl-thiazol-4-yl)-5-propoxy-phenoxy]-pentyloxy)-benzamidine]  91.8%
25. C=Cc1sc(N2CCOCC2)nc1-c1ccc(OCCCCCOc2ccc(C(=N)NO)cc2)cc1 [Example 171, N-hydroxy-4-(5-[4-(5-vinyl-2-morpholin-4-yl-1,3-thiazol-4-yl)phenoxy]pentoxy)-benzamidine]  96.2%
26. Cc1nc(-c2ccc(OCCC(C)(O)CCOc3ccc(C(=N)NO)cc3)cc2)c(C(C)C)s1 (centres unmarked) [Example 179, N-hydroxy-4-(3-hydroxy-5-[4-(5-isopropyl-2-methyl-1,3-thiazol-4-yl)-phenoxy]-3-methyl-pentoxy)-benzamidine]  100%

Same assay, conditions: Mus musculus, Osteoclast, 168 h; 1 μm; co-culture of bone marrow cells and osteoblast, 7 days, TRAP-positive osteoclasts versus controls; read-out: % inhibitory activity on osteoclastogenesis

With `N=C(NO)c1ccc(OCCCCCOc2ccc(-c3csc(C4CCCCC4)n3)cc2)cc1` [Example 8, N-hydroxy-4-(5-[4-(2-cyclohexyl-1,3-thiazol-4-yl)phenoxy]pentoxy)-benzamidine] the inhibition at 1 µM was 88.3%.

Same assay, conditions: co-culture of bone marrow cells and osteoblast, 7 days, TRAP-positive osteoclasts versus controls

In order of rising “% inhibitory activity on osteoclastogenesis” value:
1. Cc1nc(-c2ccc(OCCCCOc3ccc(C(=N)NO)c(F)c3)cc2)c(C(C)C)s1 [Example 207, N-hydroxy-2-fluoro-4-(5-[4-(5-isopropyl-2-methyl-thiazol-4-yl)-phenoxy]-butoxy)-benzamidine]  14.4%
2. COc1cc(C(=N)NO)ccc1OCCCCCOc1ccc(-c2nc(C)sc2C(C)C)cc1 [Example 189, N-hydroxy-4-(5-[4-(5-isopropyl-2-methyl-1,3-thiazol-4-yl)-phenoxy]-pentoxy-3-methoxy)-benzamidine]  38.7%
3. N=C(NO)c1ccc(OCc2ccc(COc3ccc(-c4nc(N)sc4CC4CCCC4)cc3)cc2)cc1 [Example 203, N-hydroxy-4-(4-[4-(5-cyclopentylnnethyl-2-amino-thiazol-4-yl)-phenoxymethyl]-benzyloxy)-benzamidine]  68.8%
